Where two headings read alike, the source gives them in different places.

One experiment has as its target T1, GIP-R (Homo sapiens, UniProt P48546).
T1 sequence (P48546 22-466): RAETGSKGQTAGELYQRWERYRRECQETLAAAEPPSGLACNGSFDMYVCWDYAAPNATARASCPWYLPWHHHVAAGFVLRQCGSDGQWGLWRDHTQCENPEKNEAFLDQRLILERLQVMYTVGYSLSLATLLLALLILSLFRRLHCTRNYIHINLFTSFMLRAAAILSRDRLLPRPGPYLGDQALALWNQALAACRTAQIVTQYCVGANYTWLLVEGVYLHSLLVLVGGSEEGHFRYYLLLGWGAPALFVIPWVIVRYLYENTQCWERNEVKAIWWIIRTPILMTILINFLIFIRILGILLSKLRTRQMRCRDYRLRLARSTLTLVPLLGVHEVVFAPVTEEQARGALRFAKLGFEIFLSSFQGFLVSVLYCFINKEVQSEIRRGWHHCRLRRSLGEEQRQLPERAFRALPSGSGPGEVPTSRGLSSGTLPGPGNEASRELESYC
Description: HitHunter cAMP assay (GIP-R). It counts as cell-based. The following applies: cAMP; for Emax: read-out: (Emax) GIP-R. The procedure, abridged: (§1)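 Agonist stimulation lasts 30 min at room temperature on 10,000 cells per well, with phosphodiesterase blocked by 625 μM IBMX. Accumulated cAMP is quantified by competitive antibody luminescence after overnight development.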

Another experiment concerns the target GLP-1R (Homo sapiens, UniProt P43220). Description: HitHunter cAMP assay (GLP-1R). It counts as cell-based. The following applies: cAMP; for Emax: read-out: (Emax) GLP-1R. The procedure, abridged:
as §1

Setting [1] is: Table 3, read-out: EC50 GIP-R/nM.
Where [2] appears, read: Table 3A, read-out: EC50 GIP-R/nM.
[3] abbreviates: Table 3, read-out: EC50 GLP-1R/nM.
Where [4] appears, read: Table 3A, read-out: EC50 GLP-1R/nM.

Chain of GLP-1R (P43220 24-463): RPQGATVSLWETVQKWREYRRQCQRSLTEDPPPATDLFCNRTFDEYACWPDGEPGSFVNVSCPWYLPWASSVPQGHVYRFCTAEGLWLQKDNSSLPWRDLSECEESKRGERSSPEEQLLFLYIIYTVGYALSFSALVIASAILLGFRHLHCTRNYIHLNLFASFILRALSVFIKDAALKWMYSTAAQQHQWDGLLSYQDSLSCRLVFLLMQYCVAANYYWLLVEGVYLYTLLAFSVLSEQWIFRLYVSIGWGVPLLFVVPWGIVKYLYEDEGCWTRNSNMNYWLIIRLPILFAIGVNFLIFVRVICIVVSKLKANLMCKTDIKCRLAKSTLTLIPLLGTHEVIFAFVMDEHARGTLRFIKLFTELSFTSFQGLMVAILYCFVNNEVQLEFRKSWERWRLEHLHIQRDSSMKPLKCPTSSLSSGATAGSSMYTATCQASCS

As to `CCCCCCCCCCCCCCCC(=O)N[C@@H](CCC(=O)NCCCC[C@H](NC(=O)[C@H](CO)NC(=O)[C@@H]1CCCN1C(=O)[C@@H]1CCCN1C(=O)[C@@H]1CCCN1C(=O)[C@H](C)NC(=O)CNC(=O)[C@H](CO)NC(=O)[C@H](CO)NC(=O)[C@@H]1CCCN1C(=O)CNC(=O)CNC(=O)[C@H](C)NC(=O)[C@H](CC(C)C)NC(=O)[C@H](CC(C)C)NC(=O)[C@H](Cc1c[nH]c2ccccc12)NC(=O)[C@H](CC(N)=O)NC(=O)[C@@H](NC(=O)[C@H](Cc1ccccc1)NC(=O)[C@H](CCC(=O)O)NC(=O)C(C)(C)NC(=O)[C@H](C)NC(=O)[C@H](C)NC(=O)[C@H](CCC(N)=O)NC(=O)[C@H](CCCCN)NC(=O)[C@H](CC(=O)O)NC(=O)[C@H](CC(C)C)NC(=O)[C@H](Cc1ccc(O)cc1)NC(=O)[C@@H](NC(=O)[C@H](CO)NC(=O)[C@H](Cc1ccc(O)cc1)NC(=O)[C@H](CC(=O)O)NC(=O)[C@H](CO)NC(=O)[C@@H](NC(=O)[C@H](Cc1ccccc1)NC(=O)[C@@H](NC(=O)CNC(=O)[C@H](CCC(=O)O)NC(=O)CSCC(=O)NCCN1C(=O)C[C@H](OC)C1=O)[C@@H](C)O)[C@@H](C)O)[C@@H](C)CC)C(C)C)C(N)=O)C(=O)O` [Compound 49], the EC50 at GIP-R (EC50 GIP-R/nM, Table 3) fell in the range of 0.1 to 1 nM; on GIP-R (EC50 GIP-R/nM, Table 3A), 0.1 to 1 nM; on GLP-1R (EC50 GLP-1R/nM, Table 3) it was 0.1 to 1 nM; on GLP-1R (EC50 GLP-1R/nM, Table 3A) it was 0.1 to 1 nM. Moreover, the Emax on GIP-R (Table 3) was 48%; at GIP-R (Table 3A) it was 48%; on GLP-1R (Table 3) it was 101%; on GLP-1R (Table 3A), 101%.
Take `CCCCCCCCCCCCCCCC(=O)N[C@@H](CCC(=O)NCCCC[C@H](NC(=O)[C@H](CO)NC(=O)[C@@H]1CCCN1C(=O)[C@@H]1CCCN1C(=O)[C@@H]1CCCN1C(=O)[C@H](C)NC(=O)CNC(=O)[C@H](CO)NC(=O)[C@H](CO)NC(=O)[C@@H]1CCCN1C(=O)CNC(=O)CNC(=O)[C@H](C)NC(=O)[C@H](CC(C)C)NC(=O)[C@H](CC(C)C)NC(=O)[C@H](Cc1c[nH]c2ccccc12)NC(=O)[C@H](CC(N)=O)NC(=O)[C@@H](NC(=O)[C@H](Cc1ccccc1)NC(=O)[C@H](CCC(=O)O)NC(=O)C(C)(C)NC(=O)[C@H](C)NC(=O)[C@H](C)NC(=O)[C@H](CCC(N)=O)NC(=O)[C@H](CCCCN)NC(=O)[C@H](CC(=O)O)NC(=O)[C@H](CC(C)C)NC(=O)[C@H](Cc1ccc(O)cc1)NC(=O)[C@@H](NC(=O)[C@H](CO)NC(=O)[C@H](Cc1ccc(O)cc1)NC(=O)[C@H](CC(=O)O)NC(=O)[C@H](CO)NC(=O)[C@@H](NC(=O)[C@H](Cc1ccccc1)NC(=O)[C@@H](NC(=O)CNC(=O)[C@H](CCC(=O)O)NC(=O)CSCC(=O)NCCN1C[C@H](O)CC1=O)[C@@H](C)O)[C@@H](C)O)[C@@H](C)CC)C(C)C)C(N)=O)C(=O)O` [Compound 50]: the maximum response (Emax) came out at 26% at GIP-R (Table 3), 26% at GIP-R (Table 3A), 103% on GLP-1R (Table 3) and 103% on GLP-1R (Table 3A). Moreover, the EC50 at GIP-R (setting [1]) is 1 to 10 nM; at GIP-R (setting [2]), 10 to 100 nM; on GLP-1R (setting [3]), 0.1 to 1 nM; at GLP-1R (setting [4]) it was 0.1 to 1 nM.
Regarding `CCCCCCCCCCCCCCCC(=O)N[C@@H](CCC(=O)NCCCC[C@H](NC(=O)[C@H](CO)NC(=O)[C@@H]1CCCN1C(=O)[C@@H]1CCCN1C(=O)[C@@H]1CCCN1C(=O)[C@H](C)NC(=O)CNC(=O)[C@H](CO)NC(=O)[C@H](CO)NC(=O)[C@@H]1CCCN1C(=O)CNC(=O)CNC(=O)[C@H](C)NC(=O)[C@H](CC(C)C)NC(=O)[C@H](CC(C)C)NC(=O)[C@H](Cc1c[nH]c2ccccc12)NC(=O)[C@H](CC(N)=O)NC(=O)[C@@H](NC(=O)[C@H](Cc1ccccc1)NC(=O)[C@H](CCC(=O)O)NC(=O)C(C)(C)NC(=O)[C@H](C)NC(=O)[C@H](C)NC(=O)[C@H](CCC(N)=O)NC(=O)[C@H](CCCCN)NC(=O)[C@H](CC(=O)O)NC(=O)[C@H](CC(C)C)NC(=O)[C@H](Cc1ccc(O)cc1)NC(=O)[C@@H](NC(=O)[C@H](CO)NC(=O)[C@H](Cc1ccc(O)cc1)NC(=O)[C@H](CC(=O)O)NC(=O)[C@H](CO)NC(=O)[C@@H](NC(=O)[C@H](Cc1ccccc1)NC(=O)[C@@H](NC(=O)CNC(=O)[C@H](CCC(=O)O)NC(=O)CCCNC(=O)CCN1C(=O)CSC1=O)[C@@H](C)O)[C@@H](C)O)[C@@H](C)CC)C(C)C)C(N)=O)C(=O)O` [Compound 51], the maximal effect (Emax) on GIP-R (Table 3) is 65%; on GIP-R (Table 3A) it was 65%; on GLP-1R (Table 3), 98%; at GLP-1R (Table 3A) it was 98%. Further, the EC50 at GIP-R (setting [1]) lay in the range of 1 to 10 nM; at GIP-R (setting [2]) it was 1 to 10 nM; at GLP-1R (setting [3]), 0.1 to 1 nM; at GLP-1R (setting [4]), 0.1 to 1 nM.
`CCCCCCCCCCCCCCCC(=O)N[C@@H](CCC(=O)NCCCC[C@H](NC(=O)[C@H](CO)NC(=O)[C@@H]1CCCN1C(=O)[C@@H]1CCCN1C(=O)[C@@H]1CCCN1C(=O)[C@H](C)NC(=O)CNC(=O)[C@H](CO)NC(=O)[C@H](CO)NC(=O)[C@@H]1CCCN1C(=O)CNC(=O)CNC(=O)[C@H](C)NC(=O)[C@H](CC(C)C)NC(=O)[C@H](CC(C)C)NC(=O)[C@H](Cc1c[nH]c2ccccc12)NC(=O)[C@H](CC(N)=O)NC(=O)[C@@H](NC(=O)[C@H](Cc1ccccc1)NC(=O)[C@H](CCC(=O)O)NC(=O)C(C)(C)NC(=O)[C@H](C)NC(=O)[C@H](C)NC(=O)[C@H](CCC(N)=O)NC(=O)[C@H](CCCCN)NC(=O)[C@H](CC(=O)O)NC(=O)[C@H](CC(C)C)NC(=O)[C@H](Cc1ccc(O)cc1)NC(=O)[C@@H](NC(=O)[C@H](CO)NC(=O)[C@H](Cc1ccc(O)cc1)NC(=O)[C@H](CC(=O)O)NC(=O)[C@H](CO)NC(=O)[C@@H](NC(=O)[C@H](Cc1ccccc1)NC(=O)[C@@H](NC(=O)CNC(=O)[C@H](CCC(=O)O)NC(=O)CSCC(=O)NCCn1ccccc1=O)[C@@H](C)O)[C@@H](C)O)[C@@H](C)CC)C(C)C)C(N)=O)C(=O)O` [Compound 52]: the maximal response (Emax) on GIP-R (Table 3) is 56 to 61%; at GIP-R (Table 3A) it was 56 to 61%; on GLP-1R (Table 3), 101%; at GLP-1R (Table 3A), 101%. Moreover, the EC50 is 1 to 10 nM on GIP-R (setting [1]), 1 to 10 nM on GIP-R (setting [2]), < 0.1 nM at GLP-1R (setting [3]) and < 0.1 nM at GLP-1R (setting [4]).
Regarding `CCCCCCCCCCCCCCCC(=O)N[C@@H](CCC(=O)NCCCC[C@H](NC(=O)[C@H](CO)NC(=O)[C@@H]1CCCN1C(=O)[C@@H]1CCCN1C(=O)[C@@H]1CCCN1C(=O)[C@H](C)NC(=O)CNC(=O)[C@H](CO)NC(=O)[C@H](CO)NC(=O)[C@@H]1CCCN1C(=O)CNC(=O)CNC(=O)[C@H](C)NC(=O)[C@H](CC(C)C)NC(=O)[C@H](CC(C)C)NC(=O)[C@H](Cc1c[nH]c2ccccc12)NC(=O)[C@H](CC(N)=O)NC(=O)[C@@H](NC(=O)[C@H](Cc1ccccc1)NC(=O)[C@H](CCC(=O)O)NC(=O)C(C)(C)NC(=O)[C@H](C)NC(=O)[C@H](C)NC(=O)[C@H](CCC(N)=O)NC(=O)[C@H](CCCCN)NC(=O)[C@H](CC(=O)O)NC(=O)[C@H](CC(C)C)NC(=O)[C@H](Cc1ccc(O)cc1)NC(=O)[C@@H](NC(=O)[C@H](CO)NC(=O)[C@H](Cc1ccc(O)cc1)NC(=O)[C@H](CC(=O)O)NC(=O)[C@H](CO)NC(=O)[C@@H](NC(=O)[C@H](Cc1ccccc1)NC(=O)[C@@H](NC(=O)CNC(=O)[C@@H](CCC(=O)O)NC(=O)CSCC(=O)NCCN1C(=O)CSC1=O)[C@@H](C)O)[C@@H](C)O)[C@@H](C)CC)C(C)C)C(N)=O)C(=O)O` [Compound 53], the Emax at GIP-R (Table 3) turned out to be 62%; at GIP-R (Table 3A), 62%; on GLP-1R (Table 3) it was 99%; on GLP-1R (Table 3A) it was 99%. Also, the EC50 at GIP-R (setting [1]), at GIP-R (setting [2]), on GLP-1R (setting [3]) and on GLP-1R (setting [4]) was 1 to 10 nM in each case.
